Assay results as given in US7405051B2, “Method of screening antiplatelet agents” (Astellas Pharma Inc., priority 2000, dated 2008).

Tests used:
[1] = target: T1, HORK3 protein (human ADP receptor P2TAC) (Homo sapiens, UniProt Q9H244); assay: Forskolin-stimulated cAMP production in C6-15 cell expressing HORK3 protein (cAMP HTRF); format: cell-based; settings: C6-15 cells expressing HORK3; for EC50: 1 μmol/L forskolin, 37° C. 30 minutes, read-out: EC50, responsiveness against the HORK3 protein (decrease of cAMP produced by forskolin)
T1 sequence (Q9H244 whole entry): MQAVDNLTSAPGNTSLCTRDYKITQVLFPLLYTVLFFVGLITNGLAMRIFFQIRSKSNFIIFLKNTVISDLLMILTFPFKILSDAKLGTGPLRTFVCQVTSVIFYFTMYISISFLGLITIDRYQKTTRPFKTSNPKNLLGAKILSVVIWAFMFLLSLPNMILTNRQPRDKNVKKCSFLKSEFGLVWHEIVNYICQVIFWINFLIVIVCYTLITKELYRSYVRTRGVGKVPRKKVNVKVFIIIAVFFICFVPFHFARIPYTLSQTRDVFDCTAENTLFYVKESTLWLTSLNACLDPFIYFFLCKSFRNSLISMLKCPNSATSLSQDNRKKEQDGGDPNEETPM
Experimental: The C6-15 cells expressing the HORK3 protein were seeded on a 96-well plate (1×10^4 cells/well). After culturing for 1 day, cells were treated with a DMEM medium containing 1 mmol/L 3-isobutyl-1-methylxanthine (manufactured by Sigma) and 0.1% BSA for 10 minutes, and then the combination of 1 μmol/L forskolin (manufactured by Wako Pure Chemical Industries) and 2MeSADP (a final concentration=1×10^−12 to 1×10^−7 mol/L), or the combination of 1 μmol/L forskolin and ADP (a final concentration=1×10^−10 to 1×10^−5 mol/L) was added dropwise. After incubating at 37° C. for 30 minutes, the culture supernatant was discarded, and then cells were dissolved in PBS containing 0.2% Triton X-100.
The amount of cAMP produced in each cell under each condition was measured by using a cAMP HTRF kit (manufactured by CIS bio international) in accordance with a protocol attached thereto. When the amount of cAMP produced by stimulating with 1 μmol/L forskolin alone was regarded as 100%, a concentration-dependent curve for the amount of cAMP in the presence of 2MeSADP or ADP was drawn.
Next, effects of compounds, which are known to suppress the platelet aggregation, on the suppression of the amount of cAMP produced by the forskolin stimulus in the C6-15 cell expressing the HORK3 protein by 2MeSADP were examined. […] After incubating at 37° C. for 30 minutes, the culture supernatant was discarded, and then cells were dissolved in PBS containing 0.2% Triton X-100. The amount of cAMP produced was measured by using the cAMP HTRF kit in accordance with a protocol attached thereto. When the amount of cAMP produced by stimulating with 1 μmol/L forskolin alone was regarded as 0%, and that by stimulating with the combination of 1 μmol/L forskolin and 10 nmol/L 2MeSADP was regarded as 100%, a concentration-dependent curve of each inhibitor was drawn.

[2] = target: T1, HORK3 protein (human ADP receptor P2TAC); assay: Increase in intracellular Ca2+ concentration in C6-15 cell co-expressing HORK3 protein and Gqi (FLIPR); format: cell-based; parameters: expressed in transfected cells; host or cells: C6-15 rat glioma cells, transient co-transfection of pEF-BOS-dhfr-HORK3 and pEF-BOS-Gqi; settings: C6-15 cells transfected with pEF-BOS-dhfr-HORK3 and pEF-BOS-Gqi; peak values, Logistic regression
Experimental: When most purines such as ADP, 2MeSADP (2-methylthio-ADP), or the like are added to a cell, the increase in intracellular Ca^2+ via an endogenous cellular membrane receptor is observed. […] In the present example, the C6-15 cell was used to express the HORK3 protein.
Further, the plasmid pEF-BOS-dhfr-HORK3 obtained in Example 1 was used as an expression plasmid to be used for expressing the HORK3 protein. […]
(§1) A time course of the change in the intracellular Ca^2+ concentration was measured by using FLIPR (manufactured by Molecular Device). More particularly, after 10 seconds from the beginning of measurement, 2MeSADP or ADP was added to wells to a final concentration of 3×10^−5 mol/L to 1×10^−12 mol/L. After the addition, each fluorescence intensity was measured at an interval of 1 second for 50 seconds, and then at an interval of 6 seconds for 4 minutes.
The change of the intracellular Ca^2+ concentration by 2MeSADP or ADP in the cells to which the plasmid pEF-BOS-dhfr-HORK3 and the plasmid pEF-BOS-Gqi had been transfected was measured, each peak value in various concentrations of 2MeSADP or ADP was plotted, and then the dependency upon the concentration was analyzed by using a Logistic regression method.

[3] = target: T1, HORK3 protein (human ADP receptor P2TAC); assay: Inhibition of forskolin-stimulated cAMP production in CHO cell expressing HORK3 protein; format: cell-based; settings: CHO-dhfr(-) cells expressing HORK3; 3 μmol/L forskolin; 37° C. 30 minutes; read-out: EC50, responsiveness against the HORK3 protein (decrease of cAMP produced by forskolin)
Description: It was found from Example 3 that the ADP receptor was a Gi-coupled receptor, and thus it is expected that the ADP receptor has an activity of suppressing the adenylate cyclase activity. […] In this connection, a dihydrofolate reductase (DHFR; an essential enzyme for de novo synthesis of nucleic acids) defective cell line [CHO-dhfr(−) line] was used in the present example. The plasmid pEF-BOS-dhfr-HORK3 was used as an expression plasmid to be used for expressing the HORK3 protein. The CHO-dhfr(−) line was seeded on each 10 cm-petri dish (1×10^6 cells/dish) by using an αMEM (with nucleic acids) medium. […] As a control, a gene transfection was carried out by using the plasmid pEF-BOS-dhfr (i.e., an empty vector without the HORK3 gene), instead of the plasmid pEF-BOS-dhfr-HORK3. After 24 hours from the gene transfection procedure, the transfected cells were taken and suspended in an αMEM (without nucleic acids) medium containing 100 nmol/L methotrexate (a competitive inhibitor of DHFR; manufactured by Wako Pure Chemical Industries). Each suspension was gradually diluted and reseeded on each 10 cm-petri dish. […] The amount of cAMP produced in each cell under each condition was measured by using the cAMP-EIA system in accordance with a protocol attached thereto.

[4] = system: CHO cell transfected with the empty vector; assay: Forskolin-stimulated cAMP production in control CHO cell transfected with the empty vector; format: cell-based, Chinese hamster; settings: 3 μmol/L forskolin
Experimental: The CHO-dhfr(−) line was seeded on each 10 cm-petri dish (1×10^6 cells/dish) by using an αMEM (with nucleic acids) medium. After culturing for 1 day, a gene transfection was carried out by using a transfection reagent (LipofectAMINE 2000; manufactured by GIBCO BRL) and the plasmid pEF-BOS-dhfr-HORK3 (8 μg). As a control, a gene transfection was carried out by using the plasmid pEF-BOS-dhfr (i.e., an empty vector without the HORK3 gene), instead of the plasmid pEF-BOS-dhfr-HORK3.
After 24 hours from the gene transfection procedure, the transfected cells were taken and suspended in an αMEM (without nucleic acids) medium containing 100 nmol/L methotrexate (a competitive inhibitor of DHFR; manufactured by Wako Pure Chemical Industries). Each suspension was gradually diluted and reseeded on each 10 cm-petri dish. Colonies which appeared after 2 weeks were individually taken, and used as a CHO cell expressing the HORK3 protein or a control CHO cell transfected with the empty vector in the following experiment.
The CHO cells expressing the HORK3 protein or the CHO cells transfected with the empty vector were seeded on a 24-well plate (1×10^5 cells/well). […]
The amount of cAMP produced in each cell under each condition was measured by using the cAMP-EIA system in accordance with a protocol attached thereto. […]

[5] = system: C6-15 cells transfected with pEF-BOS-dhfr (empty vector) and pEF-BOS-Gqi; assay: Intracellular Ca2+ concentration in control C6-15 cells transfected with empty vector and Gqi; format: cell-based, rat; settings: empty vector plus Gqi control cells; 3x10^-5 to 1x10^-12 mol/L
Experimental: The C6-15 cells were seeded on a 96-well plate (96 well Black/clear bottom plate, collagen I coated; manufactured by BECTON DICKINSON) so that the concentration of cells became 2×10^4 cells/well. After culturing for 48 hours, a gene transfection was carried out by using a transfection reagent (LipofectAMINE 2000; manufactured by GIBCO BRL) and the combination of the plasmid pEF-BOS-dhfr-HORK3 (50 ng/well) and the plasmid pEF-BOS-Gqi (50 ng/well). As a control, a gene transfection was carried out by using the combination of the plasmid pEF-BOS-dhfr (i.e., an empty vector without the HORK3 gene) and the plasmid pEF-BOS-Gqi, instead of the combination of the plasmid pEF-BOS-dhfr-HORK3 and the plasmid pEF-BOS-Gqi. […]
as §1, with “minutes. […]” for “minutes.”

[6] = target: T1, HORK3 protein (human ADP receptor P2TAC); assay: [3H]-2MeSADP binding assay on membrane fraction of C6-15 cell expressing HORK3 protein; settings: 1 nmol/L [3H]-2MeSADP; 20 μg membrane fraction; room temperature 2 hours
Description: The C6-15 cells expressing the HORK3 protein prepared in Example 5 were taken and washed, and then suspended in 20 mmol/L Tris-HCl (pH7.4) containing 5 mmol/L EDTA and a protease inhibitor cocktail set (Complete™; manufactured by Boeringer Mannheim). The whole was homogenized by using a POLYTRON, and ultracentrifuged. The pellet was suspended in 50 mmol/L Tris-HCl (pH7.4) containing 1 mmol/L EDTA, 100 mmol/L NaCl, 0.1% BSA, and Complete™ to obtain a membrane fraction.
After [^3H]-2MeSADP (manufactured by Moravek Biochemical) was added to 20 μg of the membrane fraction as a final concentration of 0.25 to 50 nmol/L, and was incubated in 250 μL of 50 mmol/L Tris-HCl (pH7.4) containing 1 mmol/L EDTA, 100 mmol/L NaCl, 0.1% BSA, and Complete™ at room temperature for 1 hour, the whole was collected on a glass filter by using a cell harvester. A microscintillator was added to the glass filter, and then a total amount of binding to the membrane fraction was measured by using a liquid scintillation counter. Further, an amount of non-specific binding to the membrane fraction was measured by adding 2MeSADP (a final concentration=50 μmol/L) in the above assay.
A microscintillator was added to the glass filter, and then radioactivity was measured by using a liquid scintillation counter. Further, radioactivity was measured by not adding the compound and by adding 2MeSADP (a final concentration=10 μmol/L) in the above assay, as a total amount of binding and an amount of non-specific binding, respectively.

[7] = system: ADP-induced platelet aggregation of human PRP; assay: ADP-induced human platelet aggregation in platelet-rich plasma (aggregometer); format: cell-based; settings: sodium citrate, ADP 20 to 200 μmol/L added as inducer, FIGS. 1 and 2
Experimental: Blood was collected from a healthy person (adult) by using 1/10 volume of sodium citrate, and then platelet-rich plasma(PRP) was prepared in accordance with a method of De Marco et al. (J. Clin. Invest., 77, 1272-1277, 1986). The PRP was used after preparing it to 3×10^8 cells/mL by using an automatic blood cell counter (MEK6258; Nihon Kohden Corporation). As an inducer of aggregation, ADP which is a product manufactured by MC Medical Corporation was used.
The platelet aggregation was measured by using an aggregometer (MCM Hema Tracer 212; MC Medical Corpration). […] Changes of a transmitted light were recorded for 10 minutes, and then an aggregation inhibition (%) was calculated from the maximum aggregation rate.
The data for 2MeSAMP (FIG. 1) are represented by the “average” of the experiment results obtained by using two volunteers. […] The inhibitory strength was dependent on the concentration of ADP as an inducer.

Compound	EC50 [1]	EC50 [2]	EC50 [3]	changes in the amount of cAMP produced by the forskolin stimulus [4]	change of the intracellular Ca2+ concentration [5]	IC50 ([1]; 1 μmol/L forskolin and 10 nmol/L 2MeSADP, read-out: IC50, inhibitory effect on the suppression by 2MeSADP in the amount of cAMP produced by the forskolin stimulus)	IC50 [6]	inhibition of ADP-induced platelet aggregation [7]
CSc1nc(N)c2ncn([C@@H]3O[C@H](COP(=O)(O)OP(=O)(O)O)[C@@H](O)[C@H]3O)c2n1 [2MeSADP, 2-methylthio-ADP]	0.08 nM	5.4 nM	0.07 nM	no changes	not observed			
CSc1nc(N)c2ncn([C@@H]3O[C@H](COP(=O)(O)O)[C@@H](O)[C@H]3O)c2n1 [2MeSAMP, 2-methylthio-adenosine monophosphate]						5000 nM	4900 nM	inhibited the ADP-induced platelet aggregation concentration-dependently
Nc1ncnc2c1ncn2[C@@H]1O[C@H](COP(=O)(O)OP(=O)(O)O)[C@@H](O)[C@H]1O [ADP, adenosine 5′-diphosphate]	42 nM	220 nM	35 nM	no changes	not observed			
CSCCNc1nc(SCCC(F)(F)F)nc2c1ncn2[C@@H]1O[C@H](COP(=O)(O)OP(=O)(O)C(Cl)(Cl)P(=O)(O)O)[C@@H](O)[C@H]1O [AR-C69931MX, N6-[2-methylthioethyl]-2-[3,3,3-trifluoropropylthio]-5′-ade nylic acid, monoanhydride with dichloromethylenebiphosphonic acid]								inhibited the ADP-induced platelet aggregation concentration-dependently
